Assay results from US7026353B2, “Inhibition of Gram positive bacteria” (Unisearch Limited, A.C.N., priority 1998, dated 2006).

How the values were obtained:
[1] = test system: Staphylococcus epidermidis; assay: Initial screening against growth in Nutrient Broth, microplate reader, 9 hours; type: cell-based; conditions: for % growth compared to the control value: after 9 hr
Method: (§1) All initial screening of six different furanones against growth of Staphylococcus aureus and Staphylococcus epidermidis was performed in a BioRad 3550 Microplate Reader. Ten percent (10%) of an overnight culture (10^8 cells/ml, resulting in final cell densities of 10^6 cells/ml) was added to the growth media. Nutrient Broth, containing furanones at the concentrations 10 and 1 μg/ml. The bacteria were incubated at 37° C. and growth was measured at […] for 9 hours. Cytotoxicity in mammalian systems was measured as inhibition of the growth of mouse fibroblast cells.

Staphylococcus aureus [2] = assay: as above; type: cell-based; conditions: for % growth compared to the control value: after 9 hr
Method: as §1

Micrococcus luteus = assay: Screening against growth in NB, microplate reader, 24 hours; type: cell-based; conditions: 10 μg/ml, after 24 hr
Method: (§2) A screening of six different furanone compounds against growth of Staphylococcus aureus, Staphylococcus epidermidis. Streptococcus salivarius, Streptococcus pyogenes, Enterococcus faecalis and Micrococcus luteus was performed in) a BioRad 3550 Microplate Reader. Ten percent of overnight cultures were added to the growth media. NB containing furanones at the concentration 10 μg/ml. The bacteria were incubated at 37° C. and growth was measured at 595 nm for 24 hours.

Streptococcus pyogenes = assay: as above; type: cell-based; conditions: 10 μg/ml, after 24 hr
Method: as §2

[3] = test system: Staphylococcus epidermidis; assay: as above; type: cell-based; conditions: 10 μg/ml, after 24 hr
Method: as §2

Enterococcus faecalis = assay: as above; type: cell-based; conditions: 10 μg/ml, after 24 hr
Method: as §2

Staphylococcus aureus [4] = assay: as above; type: cell-based; conditions: 10 μg/ml, after 24 hr
Method: as §2

Streptococcus salivarius = assay: as above; type: cell-based; conditions: 10 μg/ml, after 24 hr
Method: as §2

[5] = test system: mouse fibroblast cell line L292; assay: Cytotoxicity measured as inhibition of the growth of mouse fibroblast cells; type: cell-based; conditions: for Lowest concentration of furanones which significantly inhibited the growth of mouse fibroblast cell line: 30% depression of growth deemed significant
Method: as §1

Corynebacterium 003 = assay: Effect on the growth of ocular bacteria in TSB; type: cell-based, Corynebacterium sp; conditions: for Percentage growth compared to the control values: after 24 h, TSB
Method: (§3) Strains were cultured in 5 ml of TSB with or without SUs in 35° C. water bath with agitation (120 rpm). Growth rates were monitored by reading OD660nm at time intervals of 1, 2, 3, 4, 5, 7, and 24 hours.

S. epidermidis 017 = assay: Effect on the growth of ocular bacteria in TSB; type: cell-based; conditions: for Percentage growth compared to the control values: after 24 h, TSB; for Effect on growth curves: S. epidermidis strains, FIGS. 3 to 5
Method: as §3

S. aureus 015 = assay: Effect on the growth of ocular bacteria in TSB; type: cell-based; conditions: for Effect on growth curves: S. aureus strains, FIGS. 3 to 5
Method: as §3

| SMILES | % growth compared to the control value ([1]; 1 μg/ml) | % growth compared to the control value ([1]; 10 μg/ml) | % growth compared to the control value (Staphylococcus aureus [2]; 1 μg/ml) | % growth compared to the control value (Staphylococcus aureus [2]; 10 μg/ml) | % growth compared to the control value (Micrococcus luteus) | % growth compared to the control value (Streptococcus pyogenes) | % growth compared to the control value [3] | % growth compared to the control value (Enterococcus faecalis) | % growth compared to the control value (Staphylococcus aureus [4]) | % growth compared to the control value (Streptococcus salivarius) | Lowest concentration of furanones which significantly inhibited the growth of mouse fibroblast cell line [5] | further results |
| --- | --- | --- | --- | --- | --- | --- | --- | --- | --- | --- | --- | --- |
| CCCCC1=C(Br)C(=CBr)OC1=O [Compound 2] | 63.7% | 53.2% | 87.9% | 57.9% | 86% | 87% | 53% | 77% | 58% | 86% | 150 µg/mL | Inhibition of growth (Corynebacterium 003; 100 μg/ml): approximately 86%; Percentage growth compared to the control values (Corynebacterium 003; 100 μg/ml): 14%; Percentage growth compared to the control values (S. epidermidis 017; 100 μg/ml): 7%; Effect on growth curves (S. epidermidis 017; 100 μg/ml): inhibited the growth; Effect on growth curves (S. aureus 015; 100 μg/ml): inhibited the growth |
| CCCC(OC(C)=O)C1=C(Br)C(=CBr)OC1=O (stereo not drawn) [Compound 4, reference compound] | 77.1% | 53.2% | 84.2% | 34.3% | 75% | 0% | 53% | 75% | 34% | 85% | 1 µg/mL | Toxicity against mammalian cell lines [5]: quite toxic |
| O=C1C=C(Br)/C(=C/Br)O1 [Compound 30] | 72.1% | 62.2% | 56.6% | 0% | 86% | 50% | 62% | 54% | 0% | 73% | 20 µg/mL | Inhibition of growth ([1]; 10 ug/ml): completely inhibiting growth; Inhibition of growth (Staphylococcus aureus [2]; 10 ug/ml): completely inhibiting growth; Effect on growth (Corynebacterium 003; 10 μg/ml): only slowed down the growth; Percentage growth compared to the control values (Corynebacterium 003; 10 μg/ml): 90%; Growth reached (Corynebacterium 003; 20 μg/ml (as printed in text), after 24 h incubation): 90%; Percentage growth compared to the control values (S. epidermidis 017; 10 μg/ml): 91%; Effect on growth curves (S. epidermidis 017; 10 μg/ml): only slowed down the growth; Percentage growth compared to the control values (S. aureus 015; 10 μg/ml, after 24 h, TSB): 97%; Effect on growth curves (S. aureus 015; 10 μg/ml): only slowed down the growth |
| CCCC(F)C1=C(Br)/C(=C/Br)OC1=O (stereo not drawn) [Compound 45] | – | – | – | – | 100% | 26% | 22% | 85% | 4% | 69% | – | – |
